Assay results reported in patent publication US11541122B2, “Glucose sensitive insulins and uses thereof” (Ziylo Limited, priority 2018, dated 2023).

Test: Glucose affinity of macrocycles by fluorescence titration
Type: binding
Conditions: pH 7.4, 10 mM phosphate buffer
Description: The optic properties (fluorescence) of the given macrocycle changes between the unbound state, and the glucose-bound state. Titrating the macrocycle with glucose in the relevant glucose concentration range, and measuring the changes in fluorescence of the system can thus give binding curves for binding to glucose, which can be used to determine the glucose binding constant, Ka (and the displacement constant, Kd).
All solutions were maintained at pH 7.4 using 10 mM Phosphate buffer solution. The titration was performed using a Horiba Scientific Duetta fluorescence spectrometer with an excitation wavelength of 310 nm and monitoring emission from 320-550 nm. The excitation and emission slit width/band widths were set to 5 nm. All points were acquired using a 0.5 second integration time and 5 accumulations.
2 mg of compound 6d (Mw=3540 g/mol) was dissolved in […] of ultrapure H2O (pH 7.4, 10 mM PB). The purity of Compound 6d was previously assayed by 1H NMR spectroscopy using a known concentration of DMF in D2O as an internal standard. The purity was calibrated at 80% (40 μM). This was then diluted by a four-fold to give a 10 μM solution of Compound 6d.
D-glucose (180.16 mg) was dissolved in 1 mL 10 mM PB and allowed to stand overnight to allow for equilibration of the a and 13 anomers. This was sequentially diluted to give a 20 mM stock solution of D-glucose. 250 μL of this solution was combined with 250 μL Compound 6d stock solution to give a 10 mM D-glucose/5 μM Compound 6d.
In a 3 mL cuvette, 1500 μL of Solution 1 was diluted with 1500 μL of 10 mM phosphate buffer to give a 5 μM solution. This was titrated with Solution 2. For each addition of titrant solution (Solution 2), the equivalent volume was removed from the cuvette prior to addition to keep the cell volume constant (3000 μL). Each addition was stirred for 1 minute then stirring stopped to allow 1 minute for the sample to equilibrate before acquisition. Additions (in μL): 0, 10, 10, 10, 10, 10, 20, 20, 50, 100, 100.

| Kd (glucose), calculated as 1/Ka (D-glucose titration) | Calculated Ka (glucose binding constant, 1:1 binding model) (D-glucose titration, 5 μM macrocycle, excitation 310 nm) | Kd (measured similarly to compound 6d) | SMILES |
| --- | --- | --- | --- |
| 68 µM | 14751.48 ± 637.3 M⁻¹ | – | CCc1c2c(CC)c3c(CC)c1CNC(=O)Nc1ccc(C(=O)NC(CCC(=O)NC(CCC(=O)O)(CCC(=O)O)CCC(=O)O)(CCC(=O)NC(CCC(=O)O)(CCC(=O)O)CCC(=O)O)CCC(=O)NC(CCC(=O)O)(CCC(=O)O)CCC(=O)O)cc1NC(=O)NCc1c(CC)c(c(CC)c(c1CC)CNC(=O)Nc1cc(C(=O)NC(CCC(=O)NC(CCC(=O)O)(CCC(=O)O)CCC(=O)O)(CCC(=O)NC(CCC(=O)O)(CCC(=O)O)CCC(=O)O)CCC(=O)NC(CCC(=O)O)(CCC(=O)O)CCC(=O)O)ccc1NC(=O)NC3)CNC(=O)Nc1cc(C(=O)NCCOCCOCCOCCN=[N+]=[N-])ccc1NC(=O)NC2 [compound 6d] |
| – | – | 131 µM | CCc1c2c(CC)c3c(CC)c1CNC(=O)Nc1ccc(C(=O)NC(CCC(=O)O)(CCC(=O)O)CCC(=O)O)cc1NC(=O)NCc1c(CC)c(c(CC)c(c1CC)CNC(=O)Nc1cc(C(=O)NC(CCC(=O)O)(CCC(=O)O)CCC(=O)O)ccc1NC(=O)NC3)CNC(=O)Nc1cc(C(=O)NCCOCCOCCOCCOCCN=[N+]=[N-])ccc1NC(=O)NC2 [compound 24, G1 Macrocycle PEG5 Azide] |
